# Laboratory results taken from publication PMC4688878 (Chemical Research in Toxicology, 2015).
# Molecular target: T1, porcine liver COMT (Sus scrofa, UniProt Q99028)
# T1 sequence (Q99028 1-186): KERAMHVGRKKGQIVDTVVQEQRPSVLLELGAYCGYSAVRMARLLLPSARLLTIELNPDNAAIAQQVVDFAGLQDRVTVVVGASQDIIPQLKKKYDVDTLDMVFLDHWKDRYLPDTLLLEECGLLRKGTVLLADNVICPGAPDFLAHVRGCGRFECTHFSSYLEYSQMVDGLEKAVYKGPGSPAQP
# Experiment: Catechol O-methyltransferase activity assay
# Assay type: biochemical
# Details: 1 mM sinefungin; 1 mM SAM; 2 h at 37 °C
smiles,measurement,value
"Nc1ncnc2c1ncn2[C@@H]1O[C@H](C[C@@H](N)CC[C@H](N)C(=O)O)[C@@H](O)[C@H]1O [singfungin, sinefungin]",inhibition of COMT activity,significantly inhibited
